According to paper PMC6270994, “The Hydractinia echinata Test-System. III: Structure-Toxicity Relationship Study of Some Azo-, Azo-Anilide, and Diazonium Salt Derivatives” (Molecules, 2014):

Tested on: Hydractinia echinata
Assay: Hydractinia echinata test system (HeTS): reduction of Cs+-induced metamorphosis of larvae
Type: in vivo
Conditions: Hydractinia echinata; MRC50 in mol/L = concentration for 50% decrease of metamorphosis vs control; larvae exposed 3 h with Cs+, read after 24 h; read-out: M: experimental Mlog(1/MRC50) (converted)
Experimental: The average (C) concentrations of these values were calculated too. The MRC50 value calculations (Chicu et al.) result from the graphical representation of the metamorphosis variation, M (%), (Y axis) function of the xenobiotic’s concentration (mol/L) (X axis), where the metamorphosis decreases with the rise of the xenobiotic’s concentration. Thus, the MRC50 value represents the xenobiotic’s concentration (mol/L) necessary for a 50% decrease of metamorphosis, with respect to control.
For each concentration of substance experiments were performed in triplicate and were repeated at least twice.
Colonies of H. echinata (Biologische Anstalt, Helgoland, Germany) were used to obtain eggs and larvae. The culture medium was artificial seawater (980 mosmol, pH 8.2, 18 °C). In laboratory an artificial metamorphosis can be synchronically started by the introduction of Cs^+ ions or by using seawater without Mg^2+ ions; it then lasts only 24 h. Under the action of external stimulus of Cs^+ ions or Cs^+ ions together with the tested compounds, one part of larvae further lives as such and another one is metamorphosized to the polyp form. The evaluation of the influence of the tested substance is very clear this way, the proposed method being based on this aspect.
H. echinata larvae were exposed to seawater containing Cs^+ and simultaneously one of the test substances for 3 h. The percentage of animals that underwent metamorphosis (development into polyps) was determined after 24 h. […] We chose a concentration of inducers which caused about […] to three quarters of the larvae to metamorphose in order to have conditions which are highly sensitive against an inhibitory influence. […] This concentration was termed MRC50 (for Metamorphosis Reduction Concentration) and is similar to the effective EC50 concentration that gives half maximal effective response.

Row | Compound | EC50
1 | O=C(Nc1ccc(/N=N/c2ccc(C(=O)O)c(O)c2)cc1)c1ccc(/N=N/c2ccccc2O)cc1 [Compound 104, 2-Hydroxy-4-[(E)-2-(4-{4-[(E)-2-(2-hydroxy-phenyl)diazen-1-yl]-benzamido}phenyl)-diazen-1-yl]benzoic acid] | 30.2 µM
2 | O=C(Nc1ccc(/N=N/c2ccc(O)c(C(=O)O)c2)cc1)c1ccc(/N=N/c2cc(/N=N/c3cc(S(=O)(=O)O)ccc3O)c(O)cc2O)cc1 [Compound 105, 5-[(E)-2-(4-{4-[(E)-2-{2,4-dihydroxy-5-[(E)-2-(2-hydroxy-5-sulfo-phenyl)diazen-1-yl]-phenyl}diazen-1-yl]-benzamido}phenyl)-diazen-1-yl]-2-hydroxybenzoic acid] | 229 µM
3 | O=C(Nc1ccc(N=Nc2ccc(O)c(C(=O)O)c2)cc1)c1ccc(N=Nc2ccc(O)c(C(=O)O)c2)cc1 [Compound 106, 5-[2-(4-{4-[2-(3-Carboxy-4-hydroxyphenyl)diazen-1-yl]benzamido}-phenyl)diazen-1-yl]-2-hydroxybenzoic acid] | 363 µM
4 | Nc1ccc2c(O)c(N=Nc3ccc(NC(=O)c4ccc(N=Nc5ccc(O)c(C(=O)O)c5)cc4)cc3)c(S(=O)(=O)O)cc2c1 [Compound 107, 5-{2-[4-({4-[2-(6-Amino-1-hydroxy-3-sulfonaphthalen-2-yl)diazen-1-yl]-phenyl}carbamoyl)-phenyl]diazen-1-yl}-2-hydroxybenzoic acid] | 219 µM
5 | Nc1ccc2cc(S(=O)(=O)O)c(N=Nc3ccc(NC(=O)c4ccc(N=Nc5ccc(O)c(C(=O)O)c5)cc4)cc3)c(O)c2c1 [Compound 108, 5-{2-[4-({4-[2-(7-Amino-1-hydroxy-3-sulfonaphthalen-2-yl)diazen-1-yl]-phenyl}carbamoyl)-phenyl]diazen-1-yl}-2-hydroxybenzoic acid] | 214 µM
6 | Nc1c(N=Nc2ccc(NC(=O)c3ccc(N=Nc4cc(S(=O)(=O)O)c5ccccc5c4N)cc3)cc2)cc(S(=O)(=O)O)c2ccccc12 [Compound 109, 4-Amino-3-[2-(4-{4-[2-(1-amino-4-sulfonaphthalen-2-yl)-diazen-1-yl]-benzamido}phenyl)-diazen-1-yl]-naphthalene-1-sulfonic acid] | 166 µM
7 | O=C(Nc1ccc(N=Nc2c(O)c(S(=O)(=O)O)cc3cc(S(=O)(=O)O)ccc23)cc1)c1ccc(N=Nc2c(O)c(S(=O)(=O)O)cc3cc(S(=O)(=O)O)ccc23)cc1 [Compound 110, 3-Hydroxy-4-[2-(4-{4-[2-(2-hydroxy-3,6-disulfonaphthalen-1-yl)diazen-1-yl]-benzamido}phenyl)-diazen-1-yl]-naphthalene-2,7-disulfonic acid] | 195 µM
8 | Nc1ccc2cc(S(=O)(=O)O)c(N=Nc3ccc(NC(=O)c4ccc(N=Nc5c(S(=O)(=O)O)cc6cc(S(=O)(=O)O)cc(N)c6c5O)cc4)cc3)c(O)c2c1 [Compound 111, 5-Amino-3-{2-[4-({4-[2-(7-amino-1-hydroxy-3-sulfonaphthalen-2-yl)diazen-1-yl]phenyl}-carbamoyl)phenyl]diazen-1-yl}-4-hydroxy-naphthalene-2,7-disulfonic acid] | 263 µM
9 | Cc1[nH]n(-c2ccc(S(=O)(=O)O)cc2)c(=O)c1N=Nc1ccc(NC(=O)c2ccc(N=Nc3c(C)[nH]n(-c4ccc(S(=O)(=O)O)cc4)c3=O)cc2)cc1 [Compound 112, 4-(3-Methyl-4-{2-[4-(4-{2-[5-methyl-3-oxo-2-(4-sulfophenyl)-2,3-dihydro-1H-pyrazol-4-yl]diazen-1-yl}-benzamido)phenyl]-diazen-1-yl}-5-oxo-2,5-dihydro-1H-pyrazol-1-yl)benzene-1-sulfonic acid] | 95.5 µM
10 | Nc1c(N=Nc2ccc([N+](=O)[O-])cc2)c(S(=O)(=O)O)cc2cc(S(=O)(=O)O)c(N=Nc3ccc(NC(=O)c4ccc(N=Nc5ccc(O)c(C(=O)O)c5)cc4)cc3)c(O)c12 [Compound 113, 5-[2-(4-{[4-(2-{8-Amino-1-hydroxy-7-[2-(4-nitrophenyl)diazen-1-yl]-3,6-disulfonaphthalen-2-yl}diazen-1-yl)-phenyl]carbamoyl}-phenyl)diazen-1-yl]-2-hydroxybenzoic acid] | 112 µM
11 | Nc1c(N=Nc2ccc([N+](=O)[O-])cc2C(=O)O)c(S(=O)(=O)O)cc2cc(S(=O)(=O)O)c(N=Nc3ccc(NC(=O)c4ccc(N=Nc5ccc(O)c(C(=O)O)c5)cc4)cc3)c(O)c12 [Compound 114, 5-[2-(4-{[4-(2-{8-Amino-7-[2-(2-carboxy-4-nitrophenyl)diazen-1-yl]-1-hydroxy-3,6-disulfonaphthalen-2-yl}diazen-1-yl)phenyl]-carbamoyl}phenyl)-diazen-1-yl]-2-hydroxybenzoic acid] | 129 µM
12 | C=C(O)c1cc([N+](=O)[O-])ccc1N=Nc1c(N)ccc2c(O)c(N=Nc3ccc(NC(=O)c4ccc(N=Nc5ccc(O)c(C(=O)O)c5)cc4)cc3)c(S(=O)(=O)O)cc12 [Compound 115, 5-{2-[4-({4-[2-(6-Amino-1-hydroxy-5-{2-[2-(1-hydroxy-ethenyl)-4-nitro-phenyl]diazen-1-yl}-3-sulfonaphthalen-2-yl)diazen-1-yl]phenyl}-carbamoyl)phenyl]-diazen-1-yl}-2-hydroxybenzoic acid] | 138 µM
13 | Nc1ccc(N=Nc2ccc(NC(=O)c3ccc(N=Nc4c(S(=O)(=O)O)cc5cc(S(=O)(=O)O)c(N=Nc6ccccc6)c(O)c5c4N)cc3)cc2)c(N)c1 [Compound 116, 4-Amino-3-{2-[4-({4-[2-(2,4-diamino-phenyl)diazen-1-yl]phenyl}carbamoyl)-phenyl]diazen-1-yl}-5-hydroxy-6-(2-phenyl-diazen-1-yl)-naphthalene-2,7-disulfonic acid] | 166 µM
14 | O=C(Nc1ccc(N=Nc2ccc(O)c(C(=O)Nc3ccccc3)c2)cc1)c1ccc(N=Nc2ccc(O)c(C(=O)Nc3ccccc3)c2)cc1 [Compound 117, 2-Hydroxy-5-{2-[4-(4-{2-[4-hydroxy-3-(phenylcarbamoyl)phenyl]diazen-1-yl}-benzamido)phenyl]-diazen-1-yl}-N-phenylbenzamide] | 166 µM
15 | O=C(Nc1ccc(N=Nc2c(S(=O)(=O)O)cc3cc(NC(=O)c4ccccc4)ccc3c2O)cc1)c1ccc(N=Nc2ccc(O)c(C(=O)Nc3ccccc3)c2)cc1 [Compound 118, 7-Benzamido-4-hydroxy-3-{2-[4-(4-{2-[4-hydroxy-3-(phenyl-carbamoyl)phenyl]diazen-1-yl}benzamido)-phenyl]diazen-1-yl}naphthalene-2-sulfonic acid] | 224 µM
16 | O=C(Nc1ccc(N=Nc2c(S(=O)(=O)O)cc3cc(NC(=O)c4ccccc4)ccc3c2O)cc1)c1ccc(N=Nc2ccc(O)c(C(=O)O)c2)cc1 [Compound 119, 5-{2-[4-({4-[2-(6-Benzamido-1-hydroxy-3-sulfonaphthalen-2-yl)diazen-1-yl]-phenyl}carbamoyl)phenyl]diazen-1-yl}-2-hydroxybenzoic acid] | 22.4 µM
17 | Nc1c(N=Nc2ccc(NC(=O)c3ccc(N=Nc4ccc(O)c(C(=O)Nc5ccccc5)c4)cc3)cc2)cc(S(=O)(=O)O)c2ccccc12 [Compound 120, 4-Amino-3-{2-[4-(4-{2-[4-hydroxy-3-(phenyl-carbamoyl)phenyl]diazen-1-yl}benzamido)phenyl]-diazen-1-yl}naphthalene-1-sulfonic acid] | 25.1 µM
18 | Nc1ccc2cc(S(=O)(=O)O)c(N=Nc3ccc(NC(=O)c4ccc(N=Nc5ccc(O)c(C(=O)Nc6ccccc6)c5)cc4)cc3)c(O)c2c1 [Compound 121, 6-Amino-4-hydroxy-3-{2-[4-(4-{2-[4-hydroxy-3-(phenyl-carbamoyl)phenyl]diazen-1-yl}benzamido)-phenyl]diazen-1-yl}naphthalene-2-sulfonic acid] | 31.6 µM
19 | Nc1cc(S(=O)(=O)O)cc2cc(S(=O)(=O)O)c(N=Nc3ccc(NC(=O)c4ccc(N=Nc5ccc(O)c(C(=O)Nc6ccccc6)c5)cc4)cc3)c(O)c12 [Compound 122, 5-Amino-4-hydroxy-3-{2-[4-(4-{2-[4-hydroxy-3-(phenyl-carbamoyl)phenyl]-diazen-1-yl}-benzamido)phenyl]-diazen-1-yl}-naphthalene-2,7-disulfonic acid] | 31.6 µM
20 | O=C(Nc1ccc(N=Nc2c(O)c(S(=O)(=O)O)cc3cc(S(=O)(=O)O)ccc23)cc1)c1ccc(N=Nc2ccc(O)c(C(=O)Nc3ccccc3)c2)cc1 [Compound 127, 3-Hydroxy-4-{2-[4-(4-{2-[4-hydroxy-3-(phenylcarbamoyl)phenyl]diazen-1-yl}-benzamido)phenyl]-diazen-1-yl}-naphthalene-2,7-disulfonic acid] | 58.9 µM
21 | O=C(Nc1ccc(N=Nc2c(O)ccc3ccccc23)cc1)c1ccc(N=Nc2ccc(O)c(C(=O)Nc3ccccc3)c2)cc1 [Compound 128, 2-Hydroxy-5-{2-[4-({4-[2-(2-hydroxynaphthalen-1-yl)diazen-1-yl]-phenyl}carbamoyl)-phenyl]diazen-1-yl}-N-phenylbenzamide] | 53.7 µM

Same assay, conditions: Hydractinia echinata; parent dye, Table 2; read-out: F(1+2+...)e experimental toxicity log(1/MRC50) (converted)

Row | Compound | EC50
22 | O=C(Nc1ccc(/N=N/c2ccc(C(=O)O)c(O)c2)cc1)c1ccc(/N=N/c2ccccc2O)cc1 [Compound 104, 2-Hydroxy-4-[(E)-2-(4-{4-[(E)-2-(2-hydroxy-phenyl)diazen-1-yl]-benzamido}phenyl)-diazen-1-yl]benzoic acid] | 30.2 µM
23 | O=C(Nc1ccc(N=Nc2ccc(O)c(C(=O)O)c2)cc1)c1ccc(N=Nc2ccc(O)c(C(=O)O)c2)cc1 [Compound 106, 5-[2-(4-{4-[2-(3-Carboxy-4-hydroxyphenyl)diazen-1-yl]benzamido}-phenyl)diazen-1-yl]-2-hydroxybenzoic acid] | 363 µM
24 | O=C(Nc1ccc(N=Nc2ccc(O)c(C(=O)Nc3ccccc3)c2)cc1)c1ccc(N=Nc2ccc(O)c(C(=O)Nc3ccccc3)c2)cc1 [Compound 117, 2-Hydroxy-5-{2-[4-(4-{2-[4-hydroxy-3-(phenylcarbamoyl)phenyl]diazen-1-yl}-benzamido)phenyl]-diazen-1-yl}-N-phenylbenzamide] | 166 µM

Same assay, conditions: MRC50 in mol/L = concentration for 50% decrease of metamorphosis vs control; larvae exposed 3 h with Cs+, read after 24 h

Row | Compound | M: experimental Mlog(1/MRC50)
25 | O=C(Nc1ccc2c(O)c(N=Nc3ccccc3)c(S(=O)(=O)[O-])cc2c1)Nc1ccc2c(O)c(N=Nc3ccccc3)c(S(=O)(=O)[O-])cc2c1.[Na+].[Na+] [Compound 129, Direct Brilliant Orange] | 3.65
